Literature values in patent US6916809B2, “Heterocyclic acridone inhibitors of IMPDH enzyme” (Bristol-Myers Squibb Company, priority 2001, dated 2005).
Where two headings read alike, the source gives them in different places.

Columns and labels:
[1] = tested on: IMPDH types I and II; conditions: low and high concentrations
[2] = tested on: IL-2, IL-4, and IFN; conditions: Rol 10^-7 M, MPA 10^-8 M
[3] = tested on: antigen-specific T lymphocyte responses; conditions: for synergistic effect with Rol on inhibition of antigen-induced proliferation: combined with Rol 10^-7 M; for % inhibition of proliferation: synergistic combination of rolipram and MPA; for approximate IC10: antigen-induced proliferation, Canelos et al. 2001

Row | Structure (SMILES) | gene expression for IMPDH types I and II [1] | downregulation in the generation of proinflammatory cytokines [2] | synergistic effect with Rol on inhibition of antigen-induced proliferation [3] | % inhibition of proliferation ([3]; with deoxyguanosine (reversal), p<0.05) [%] | % inhibition of proliferation ([3]; without deoxyguanosine) [%] | approximate IC10 [3]
1 | COc1c(C)c2c(c(O)c1C/C=C(\C)CCC(=O)O)C(=O)OC2 [MPA, mycophenolic acid] | remained unaffected | no significant downregulation | marked synergistic effect | 35±12 | 81±16 | 
2 | COc1ccc(C2CNC(=O)C2)cc1OC1CCCC1 (stereo not shown) [Rol, 4-[3-(cyclopentyloxy)-4-methoxy-phenyl]-2-pyrrolidinone] | remained unaffected | no significant downregulation |  |  |  | ~10^−7 M
3 | CCCC(=O)Nc1ncnc2c1ncn2[C@@H]1O[C@@H]2COP(=O)(O)O[C@H]2[C@H]1OC(=O)CCC [dibuteryl-cAMP] |  |  |  |  |  | ~2e-06 M
4 | C=CC[C@@H]1/C=C(\C)C[C@H](C)C[C@H](OC)[C@H]2O[C@@](O)(C(=O)C(=O)N3CCCC[C@H]3C(=O)O[C@H](/C(C)=C/[C@@H]3CC[C@@H](O)[C@H](OC)C3)[C@H](C)[C@@H](O)CC1=O)[C@H](C)C[C@@H]2OC [tacrolimus] |  |  | little or no synergistic effect |  |  | 
